The source of these data is ChEMBL document CHEMBL1201862, “PubChem BioAssay data set” (2004).

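Protocol summary: plate cells (96-well), add compound at 5 concentrations, incubate 48 h, interpolate endpoints linearly. The concentration for 50% growth inhibition is given as GI50.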 The source made the active and inactive calls. Cut-off read from the data, not from the text of the source: active = GI50 up to about 1.1 µM and inactive = higher.

Among the test systems are 786-0; A498; CCRF-CEM; DU-145; HCT-15; HL-60; K562; KM12; LOX IMVI; MCF7; MOLT-4; NCI-H522; PC-3; SF-295; SK-MEL-5; SK-OV-3; SN12C; SNB-19; SNB-75; HCT-116.
What all share (assay): DTP human tumour cell line panel, 48 h

`COc1ccc(-c2c(C#N)c(N)n(C3OCC(O)C(O)C3O)c(=S)c2C#N)cc1` (centres undefined): the GI50 in the assay on 786-0 was > 100 µM (inactive); in the assay on A498, > 100 µM (inactive); in the assay on CCRF-CEM it was > 100 µM (inactive); in the assay on DU-145, > 100 µM (inactive); with HCT-15, over 100 µM; with HL-60, > 100 µM (inactive). The GI50 with K562, with KM12, with LOX IMVI, in the assay on MCF7, in the assay with MOLT-4 and in the assay with NCI-H522 was > 100 µM (inactive) each time. The GI50 in the assay on PC-3, in the assay on SF-295, in the assay with SK-MEL-5, with SK-OV-3, with SN12C and with SNB-19 was > 100 µM (inactive) each time. In addition, the GI50 with SNB-75 was > 100 µM (inactive).
As for `C/C(=C1/N=C(c2ccccc2)OC1=O)c1ccccc1`, the GI50 with 786-0 was > 100 µM (inactive); in the assay on A498 it was > 100 µM (inactive); with CCRF-CEM it was 33.4 µM (inactive); in the assay on DU-145, > 100 µM (inactive); in the assay on HCT-116 it was > 100 µM (inactive); in the assay with HCT-15 it was 99.1 µM. For the same compound, the GI50 in the assay with HL-60 is 25.6 µM (inactive); in the assay on K562, > 100 µM (inactive); in the assay with KM12, 61.4 µM (inactive); with LOX IMVI, 33.5 µM (inactive); in the assay with MCF7, 82 µM (inactive); in the assay with MOLT-4, 95.1 µM (inactive). In addition, the GI50 is 85.3 µM (inactive) in the assay on NCI-H522; > 100 µM (inactive) in the assay with PC-3; 76.2 µM (inactive) in the assay on SF-295; > 100 µM (inactive) in the assay on SK-MEL-5; > 100 µM (inactive) with SK-OV-3; > 100 µM (inactive) in the assay with SN12C. Moreover, the GI50 with SNB-19 and in the assay with SNB-75 was > 100 µM (inactive) each time.
Take `CC(=O)N(C(C)=O)n1c(Cc2ccc(C)cc2)nn(C(C)=O)c1=O`: the GI50 in the assay with 786-0 is > 100 µM (inactive); in the assay on A498 it was > 100 µM (inactive); with CCRF-CEM, > 100 µM (inactive); in the assay on DU-145, > 100 µM (inactive); in the assay with HCT-116, > 100 µM (inactive); in the assay with HCT-15 it was over 100 µM. Also, the GI50 in the assay with HL-60, in the assay with K562, with KM12, in the assay with LOX IMVI, with MCF7 and with MOLT-4 was > 100 µM (inactive) in each case. Besides, the GI50 in the assay on NCI-H522, with PC-3, with SF-295, with SK-MEL-5, in the assay with SK-OV-3 and with SN12C was > 100 µM (inactive) each time. Also, the GI50 with SNB-19 and in the assay on SNB-75 was > 100 µM (inactive) in each case.
With `CCOC(=O)c1ccc(/N=C2\SC(=S)N(c3ccc(F)cc3)\C2=N/c2ccc(C(=O)OCC)cc2)cc1`, the GI50 in the assay on 786-0 was 17.1 µM (inactive); with A498 it was > 100 µM (inactive); in the assay on CCRF-CEM it was 6.95 µM (inactive); with DU-145, 39.2 µM (inactive); in the assay on HCT-116 it was 14.2 µM (inactive); with HCT-15, 4.29 µM. Moreover, the GI50 in the assay with HL-60 is 5.78 µM (inactive); in the assay with K562, 12.3 µM (inactive); with KM12 it was 24.8 µM (inactive); with LOX IMVI, 5.73 µM (inactive); in the assay with MCF7 it was 18.8 µM (inactive); with MOLT-4, 3.68 µM (inactive). The GI50 was 5.97 µM (inactive) in the assay with NCI-H522; 13.5 µM (inactive) in the assay with PC-3; 48.3 µM (inactive) with SF-295; 10.5 µM (inactive) in the assay on SK-MEL-5; 86.9 µM (inactive) in the assay with SK-OV-3; 15.7 µM (inactive) in the assay on SN12C. The GI50 with SNB-19 was 65.2 µM (inactive); in the assay with SNB-75, 20.2 µM (inactive).
Regarding `CC1=CC(=O)c2ccc(C)cc2C1=O` [CHIMAPHILIN], the GI50 with 786-0 was 19.7 µM (inactive); with A498, 17.6 µM (inactive); in the assay with CCRF-CEM it was 2.86 µM (inactive); with DU-145 it was 16.8 µM (inactive); with HCT-116, 4.44 µM (inactive); with HCT-15, 12.7 µM. For the same compound, the GI50 is 1.98 µM (inactive) with HL-60; 3.65 µM (inactive) with K562; 5.96 µM (inactive) with KM12; 5.09 µM (inactive) with LOX IMVI; 3.05 µM (inactive) with MCF7; 2.41 µM (inactive) in the assay on MOLT-4. Besides, the GI50 in the assay with NCI-H522 is 4.09 µM (inactive); with PC-3, 11.6 µM (inactive); with SF-295, 17.2 µM (inactive); with SK-MEL-5, 3.82 µM (inactive); in the assay with SK-OV-3 it was 16.9 µM (inactive); in the assay on SN12C, 19.1 µM (inactive). Besides, the GI50 was 16.1 µM (inactive) with SNB-19 and > 10 µM (inactive) in the assay on SNB-75.
Take `C[n+]1ccn2c3nc4ccccc4nc3c([O-])c(C#N)c21`: the GI50 with 786-0 is > 48.5 µM (inactive); in the assay on A498 it was > 100 µM (inactive); in the assay with CCRF-CEM it was > 100 µM (inactive); in the assay on DU-145, > 100 µM (inactive); in the assay on HCT-116 it was > 100 µM (inactive); in the assay on HCT-15, over 10 µM. In addition, the GI50 was > 100 µM (inactive) with HL-60; > 100 µM (inactive) in the assay on K562; > 10 µM (inactive) in the assay on KM12; > 100 µM (inactive) in the assay with LOX IMVI; 88.9 µM (inactive) in the assay on MCF7; > 100 µM (inactive) in the assay with MOLT-4. In addition, the GI50 in the assay with NCI-H522 was > 10 µM (inactive); with PC-3, > 100 µM (inactive); in the assay on SF-295, > 100 µM (inactive); with SK-MEL-5, > 4.65 µM (inactive); with SK-OV-3, > 100 µM (inactive); in the assay with SN12C it was > 100 µM (inactive). Also, the GI50 with SNB-19 and in the assay on SNB-75 was > 100 µM (inactive) each time.
With `COc1ccc(C(SCCO)(c2ccc(OC)cc2)c2ccc(OC)cc2)cc1`, the GI50 is 14.2 µM (inactive) in the assay on 786-0; 17.8 µM (inactive) in the assay on A498; 7.23 µM (inactive) in the assay on CCRF-CEM; 23.4 µM (inactive) in the assay on DU-145; 14.3 µM (inactive) in the assay with HCT-116; 11.4 µM in the assay with HCT-15. For the same compound, the GI50 was 21 µM (inactive) with HL-60; 3.19 µM (inactive) with K562; 15.3 µM (inactive) in the assay on KM12; 14 µM (inactive) with LOX IMVI; 14.8 µM (inactive) with MCF7; 10.9 µM (inactive) in the assay on MOLT-4. For the same compound, the GI50 with NCI-H522 was 12.4 µM (inactive); with PC-3, 13.8 µM (inactive); in the assay on SF-295, 12.4 µM (inactive); in the assay with SK-MEL-5 it was 12.2 µM (inactive); in the assay on SK-OV-3, 29.1 µM (inactive); with SN12C it was 17.5 µM (inactive). Further, the GI50 was 26.9 µM (inactive) in the assay with SNB-19 and 22 µM (inactive) in the assay on SNB-75.

Usually GI50 stands for the concentration giving 50% growth inhibition.
